Here are results for 8 substances from patent publication US8889826B2, “Peptide antibiotics and methods for making same” (priority 2004, dated 2014).

Data set [1] deals with Staphylococcus aureus Smith. As to the kind of experiment: MIC by serial twofold broth dilution, Staph. It counts as cell-based. More on the design: unit not given here. The conditions noted are these: Mueller Hinton broth. An excerpt: (§1) The antibacterial activities of certain new compounds are indicated in Table 4 as their minimum inhibitory concentrations (MICs) against Escherichia coli, Staphylococcus aureus, and Pseudomonas aeruginosa. MICs can be determined by the conditions disclosed in Table 4, as well as in Jarolmen, H. et al., “Activity of Minocycline Against R-Factor Carrying Enterobacteriaceae,” Infectious Immunity, Vol. 1, No. 4, pp. 321-326, 1970, the disclosure of which is incorporated herein by reference.
Background: Dilution methods test growth across graded concentrations, often in twofold steps.

Data set [2] has as its system Escherichia coli, ATCC #26. As to the kind of experiment: MIC by serial twofold broth dilution, E. coli. Format: cell-based. More on the design: unit not given here. The settings on record: Mueller Hinton broth.
Text: as §1

The subject of data set [3] is Pseudomonas aeruginosa, ATCC 27853. Nature of the data set: MIC by serial twofold broth dilution, Pseudo. More on the design: unit not given here. Format: cell-based. The conditions noted are these: Mueller Hinton broth.
Text: as §1

The conditions of data set [4]: human, in vivo; cited from earlier work.

As for “n-Octylcarbamyl-colistin decapeptide [Compound 51]”, the “Staph MIC” value in data set [1] came out at 20. Also, the “E. coli MIC” value in data set [2] was 1.25. Also, in data set [3], the “Pseudo MIC” value is 0.6.
The corresponding values for Polymyxin B [reference compound] are >10, 0.6 and 0.6.
The corresponding values for Polymyxin B1 [reference compound] are 10, 0.6 and 0.6.
Regarding Colistin [reference compound], in data set [1], the “Staph MIC” value is given as >20. In addition, the “neurotoxicity, overall incidence” value in data set [4] is 7.3%. Moreover, the “E. coli MIC” value in data set [2] is given as 0.6. Further, the “Pseudo MIC” value in data set [3] is recorded as 0.6.
On to “Cyclohexylcarbamyl-[Ile^7]-Polymyxin Decapeptide [Compound 48]”, for which the “E. coli MIC” value in data set [2] worked out at 0.6. For the same substance, the “Pseudo MIC” value in data set [3] was 0.6.
For the substance “P-Toluenesulfonyl-Colistin decapeptide [Compound 53]”, the “Staph MIC” value in data set [1] is reported as >20. Also, the “E. coli MIC” value in data set [2] came to 1.25. Besides, the “Pseudo MIC” value in data set [3] is on record as 0.6.
For “N-(n-Decanoyl)phenylalanyl-colistin decapeptide [Compound 52]”, in that order: 2.5, 1.25 and 2.5.
As to “[Ile^7]-polymyxin B1 [reference compound]”, in data set [1], the “Staph MIC” value amounted to 20. The “E. coli MIC” value in data set [2] turned out to be 0.6. For the same substance, the “Pseudo MIC” value in data set [3] worked out at 1.25.
